From patent US20250221966A1, “RXFP1 AGONISTS” (BRISTOL-MYERS SQUIBB COMPANY, priority 2021, published 2025)

The compounds below were run against T1, human RXFP1 (Homo sapiens, UniProt Q9HBX9) (assay: RXFP1 cAMP assay (hRXFP1 HEK293 cAMP assay, HTRF)). Conditions: HEK293 cells stably expressing human RXFP1, 30 min at room temperature, read-out: cAMP hRXFP1 HEK293 Assay EC50.
T1 construct: expressed in transfected cells
T1 sequence (Q9HBX9 1-757): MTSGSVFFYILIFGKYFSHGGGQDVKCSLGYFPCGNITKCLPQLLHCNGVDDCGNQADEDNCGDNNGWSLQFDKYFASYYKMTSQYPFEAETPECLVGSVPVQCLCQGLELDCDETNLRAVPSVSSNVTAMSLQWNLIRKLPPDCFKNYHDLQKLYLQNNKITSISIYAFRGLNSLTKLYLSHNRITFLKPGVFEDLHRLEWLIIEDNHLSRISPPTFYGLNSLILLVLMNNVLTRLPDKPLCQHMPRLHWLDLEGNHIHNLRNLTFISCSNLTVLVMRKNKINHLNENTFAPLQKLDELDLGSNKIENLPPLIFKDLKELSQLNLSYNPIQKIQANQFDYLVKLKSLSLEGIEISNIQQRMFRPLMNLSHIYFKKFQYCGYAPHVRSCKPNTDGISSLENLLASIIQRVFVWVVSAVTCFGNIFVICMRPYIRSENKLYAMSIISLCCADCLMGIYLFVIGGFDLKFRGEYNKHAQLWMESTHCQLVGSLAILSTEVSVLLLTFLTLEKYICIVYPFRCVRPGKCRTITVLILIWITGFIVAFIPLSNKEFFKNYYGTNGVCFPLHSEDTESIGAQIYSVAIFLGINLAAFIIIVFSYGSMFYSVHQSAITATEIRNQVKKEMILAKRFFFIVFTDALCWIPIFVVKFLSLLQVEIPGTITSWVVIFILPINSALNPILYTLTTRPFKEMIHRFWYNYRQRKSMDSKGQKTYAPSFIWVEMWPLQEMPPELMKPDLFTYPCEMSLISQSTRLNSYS
Type: cell-based
Outline: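 Potency and activity come from a four-parameter logistic fit of cAMP against compound concentration, tested from 0.010 nM up to 50 μM. The assay uses HEK293 cells stably expressing human RXFP1, incubated 30 min at ambient temperature with phosphodiesterase inhibitor IBMX present.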
Work on COc1ccc(-c2cc(C(OC(=O)NC3CCC3)C(=O)O)ccc2F)cc1C(=O)N[C@H]1[C@@H](C(=O)Nc2ccc(F)c(C(F)(F)F)c2)[C@H]2CC[C@@H]1/C2=C\C(C)C (stereo partly shown) [compound 938] yielded an EC50 of 1.7 nM.
In the case of COc1cc(F)c(F)cc1C(=O)N[C@@H]1C2CCC(/C2=C\c2ccccc2)[C@]1(F)C(=O)Nc1ccc(F)c(C(F)(F)F)c1 (stereo partly shown) [Example 52], the EC50 is reported as 3000 nM.
COc1ccc(C2=NOC(CCO)C2CCO)cc1C(=O)N[C@H]1[C@@H](C(=O)Nc2ccc(F)c(C(F)(F)F)c2)[C@H]2CC[C@@H]1/C2=C\C1CC1 (stereo partly shown) [compound 501] showed an EC50 of 11.6 nM.
O=C(N[C@H]1[C@@H](C(=O)Nc2ccc(F)c(C(F)(F)F)c2)[C@H]2CC[C@@H]1/C2=C\C1CC1)c1cc(C2=NOC3COCC23)cc(F)c1OCC1CC1 (stereo partly shown) [compound 799] showed an EC50 of 4.7 nM.
With COc1c(F)cc(C2=NOC3CC(CO)CC23)cc1C(=O)N[C@H]1[C@@H](C(=O)NC23CC(C)(C2)C3)[C@H]2CC[C@@H]1/C2=C\C1CC1 (stereo partly shown) [compound 773] the EC50 was 3.9 nM.
With COc1ccc(C2=NOC3CC(C)(O)CC23)cc1C(=O)N[C@H]1[C@@H](C(=O)Nc2ccc(F)c(C(F)(F)F)c2)[C@H]2CC[C@@H]1/C2=C\C1CC1 (stereo partly shown) [compound 858] the EC50 was 1.3 nM.
COc1ccc(-c2cc([C@H](OC(=O)NC3CC3)C(F)(F)F)ccc2F)cc1C(=O)N[C@H]1[C@@H](C(=O)Nc2ccc(F)c(C(F)(F)F)c2)[C@H]2CC[C@@H]1/C2=C\C(C)C [compound 930] gave an EC50 of 1.1 nM.
In the case of COC(=O)NC(C(=O)O)c1ccc(F)c(-c2ccc(OC)c(C(=O)N[C@@H]3C4CCC(/C4=C/C(F)(F)F)[C@@H]3C(=O)Nc3ccc(F)c(C(F)(F)F)c3)c2)c1 (stereo partly shown) [compound 185], the EC50 is reported as 15 nM.
Work on COc1ccc(C2=NOC3COCC23)cc1C(=O)N[C@H]1[C@@H](C(=O)NCC2CCC2)[C@H]2CC[C@@H]1/C2=C\C1CC1 (stereo partly shown) [compound 597] yielded an EC50 of 102 nM.
Work on COc1ccc(C2=NOC3COCC23)c(F)c1C(=O)N[C@H]1[C@@H](C(=O)Nc2ccc(F)c(C(F)(F)F)c2)[C@H]2CC[C@@H]1/C2=C\C1CC1 (single isomer, unassigned) [compound 693] yielded an EC50 of 791 nM.
COc1ccc(-c2cccc(S(C)(=O)=O)c2)cc1C(=O)N[C@H]1[C@@H](C(=O)Nc2ccc(F)c(C(F)(F)F)c2)[C@H]2CC[C@@H]1/C2=C\C1CC1 [compound 898] gave an EC50 of 3.9 nM.
COc1ccc(-c2ccc(C(=O)O)cc2F)cc1C(=O)N[C@H]1[C@@H](C(=O)Nc2ccc(F)c(C(F)(F)F)c2)[C@H]2CC[C@@H]1/C2=C\C1CC(F)(F)C1 [compound 919] was tested, and the EC50 was 3.6 nM.
In the case of COc1ccc(-c2cc([C@H](OC(=O)NC3CCC3)C(=O)O)ccc2F)cc1C(=O)N[C@H]1[C@@H](C(=O)Nc2ccc(F)c(C(F)(F)F)c2)[C@H]2CC[C@@H]1/C2=C\CC(C)C [compound 937], the EC50 is reported as 5.8 nM.
COc1ccc(-c2cc(C(=O)O)ccc2F)cc1C(=O)N[C@@H]1C2CCC(/C2=C/C2CC2)[C@@H]1C(=O)NCCc1cccc(C(F)(F)F)c1 (stereo partly shown) [compound 302] gave an EC50 of 889 nM.
Compound COc1ccc(-c2cc(C(COC(=O)Nc3ccccc3)C(F)(F)F)ccc2F)cc1C(=O)N[C@H]1[C@@H](C(=O)Nc2ccc(F)c(C(F)(F)F)c2)[C@H]2CC[C@@H]1/C2=C\C1CC1 (stereo partly shown) [compound 875] has an EC50 of 1.8 nM.
Compound COc1ccc(-c2cc(C(NC(=O)C3CCOCC3)C(=O)O)ccc2F)cc1C(=O)N[C@H]1[C@@H](C(=O)Nc2ccc(F)c(C(F)(F)F)c2)[C@H]2CC[C@@H]1/C2=C\CCC(F)(F)F (stereo partly shown) [compound 940] has an EC50 of 4.1 nM.
COc1ccc(-c2ccc(C3=NOC(CO)C3)cc2F)cc1C(=O)N[C@@H]1C2CCC(/C2=C/C2CCCC2)[C@@H]1C(=O)Nc1ccc(F)c(C(F)(F)F)c1 (stereo partly shown) [compound 897] was tested, and the EC50 was 1 nM.
COc1ccc(-c2cc(C(CC(F)(F)F)NC(=O)C3CCOCC3)ccc2F)cc1C(=O)N[C@H]1[C@@H](C(=O)Nc2ccc(F)c(C(F)(F)F)c2)[C@H]2CC[C@@H]1/C2=C\C1CCCC1 (stereo partly shown) [compound 944] showed an EC50 of 1.9 nM.
For COc1cc(F)c(F)cc1C(=O)N[C@@H]1C2CCC(/C2=C/C2=CCOC2)[C@@H]1C(=O)Nc1ccc(F)c(C(F)(F)F)c1 (stereo partly shown) [compound 58], the EC50 was 1100 nM.
COc1ccc(-c2cc(C(=O)O)ccc2F)cc1C(=O)N[C@@H]1C2CCC(/C2=C/C(=O)N(C)C)[C@@H]1C(=O)Nc1ccc(F)c(C(F)(F)F)c1 (stereo partly shown) [Example 323] was tested, and the EC50 was 854 nM.
Work on COc1ccc(C2=NOC3COCC23)cc1C(=O)N[C@H]1[C@@H](C(=O)NC2(C)CCCC2)[C@H]2CC[C@@H]1/C2=C\C1CC1 (stereo partly shown) [compound 494] yielded an EC50 of 10.4 nM.
With COc1ccc(C2=NOC(C3(O)CCC3)C2)cc1C(=O)N[C@H]1[C@@H](C(=O)Nc2ccc(F)c(C(F)(F)F)c2)[C@H]2CC[C@@H]1/C2=C\C1CC1 (single isomer, unassigned) [compound 603] the EC50 was 112 nM.
COc1ccc(-c2cccnc2)cc1C(=O)N[C@H]1[C@@H](C(=O)Nc2ccc(F)c(C(F)(F)F)c2)[C@H]2CC[C@@H]1/C2=C\C(F)(F)F [Example 310, (1R,2S,3R,4R,Z)—N-(4-fluoro-3-(trifluoromethyl)phenyl)-3-(2-methoxy-5-(pyridin-3-yl)benzamido)-7-(2,2,2-trifluoroethylidene)bicyclo[2.2.1]heptane-2-carboxamide] showed an EC50 of 162 nM.
For COc1ccc(C2=NOC3C4CC(C(O)C4O)C23)cc1C(=O)N[C@H]1[C@@H](C(=O)Nc2ccc(F)c(C(F)(F)F)c2)[C@H]2CC[C@@H]1/C2=C\C1CC1 (single isomer, unassigned) [Example 448], the EC50 was 1.2 nM.
COc1ccc(-c2cc(C(=O)O)ccc2F)cc1C(=O)N[C@@H]1C2CCC(/C2=C/C(=O)N2CC(F)(F)C2)[C@@H]1C(=O)Nc1ccc(F)c(C(F)(F)F)c1 (stereo partly shown) [compound 324] showed an EC50 of 2240 nM.
Compound CCOC(=O)c1c(-c2ccc(F)cc2)[nH]c2ccc(-c3ccc(OC)c(C(=O)N[C@@H]4C5CCC(/C5=C/C(F)(F)F)[C@@H]4C(=O)Nc4ccc(F)c(C(F)(F)F)c4)c3)cc12 (stereo partly shown) [compound 298] has an EC50 of 70 nM.
Work on COc1ccc(-c2cccc3c2CN(C(=O)N(C)c2ccccc2)C3)cc1C(=O)N[C@H]1[C@@H](C(=O)Nc2ccc(F)c(C(F)(F)F)c2)[C@H]2CC[C@@H]1/C2=C\C1CC1 [compound 886] yielded an EC50 of 2.7 nM.
COc1ccc(-c2cc([C@H](OC(=O)NC3CCC3)C(F)(F)F)ccc2F)cc1C(=O)N[C@@H]1C2CCC(/C2=C/C(C)C)[C@@H]1C(=O)Nc1ccc(F)c(C(F)(F)F)c1 (stereo partly shown) [compound 925] was tested, and the EC50 was 5.2 nM.
For COc1ccc(-c2cccc3c2ccn3C(=O)OC(C)(C)C)cc1C(=O)N[C@H]1[C@@H](C(=O)Nc2ccc(F)c(C(F)(F)F)c2)[C@H]2CC[C@@H]1/C2=C\C1CC1 [compound 880], the EC50 was 1.6 nM.
Work on COc1cc(C)c(-c2nnc(CO)s2)cc1C(=O)N[C@H]1[C@@H](C(=O)Nc2ccc(F)c(C(F)(F)F)c2)[C@H]2CC[C@@H]1/C2=C\C1CC1 [compound 808] yielded an EC50 of 4.2 nM.
Work on COc1ccc(N2C[C@H](O)CC2=O)cc1C(=O)N[C@H]1[C@@H](C(=O)Nc2ccc(F)c(C(F)(F)F)c2)[C@H]2CC[C@@H]1/C2=C\C1CC1 [compound 639] yielded an EC50 of 212 nM.
With COc1ccc(-c2cc(C(=O)NS(C)(=O)=O)ccc2F)cc1C(=O)N[C@@H]1C2CCC(C2=C(C)C)[C@@H]1C(=O)Nc1ccc(F)c(C(F)(F)F)c1 (stereo partly shown) [compound 131] the EC50 was 130 nM.
In the case of O=C(NC1CCC1)OC(c1ccc(F)c(-c2ccc(OCc3ccccc3)c(C(=O)N[C@@H]3C4CCC(/C4=C/C4CC4)[C@@H]3C(=O)Nc3ccc(F)c(C(F)(F)F)c3)c2)c1)C(F)(F)F (stereo partly shown) [compound 252], the EC50 is reported as 11 nM.
In the case of CNC(=O)OC(c1ccc(F)c(-c2ccc(OC)c(C(=O)N[C@@H]3C4CCC(/C4=C/C4CC4)[C@@H]3C(=O)Nc3ccc(F)c(C(F)(F)F)c3)c2)c1)C(F)(F)F (stereo partly shown) [compound 217], the EC50 is reported as 2 nM.
CN(C)c1c(Cl)cc(C2=NOC3COCC23)cc1C(=O)N[C@H]1[C@@H](C(=O)Nc2ccc(F)c(C(F)(F)F)c2)[C@H]2CC[C@@H]1/C2=C\C1CC1 (single isomer, unassigned) [compound 474] was tested, and the EC50 was 5 nM.
With COc1ccc(N2CCCC(C(=O)O)C2)cc1C(=O)N[C@@H]1C2CCC(C2=C(C)C)[C@@H]1C(=O)Nc1ccc(F)c(C(F)(F)F)c1 (stereo partly shown) [compound 142] the EC50 was 2900 nM.
For COc1ccc(-c2cc(C3=NOC(C(=O)O)C3)ccc2F)cc1C(=O)N[C@H]1[C@@H](C(=O)Nc2ccc(F)c(C(F)(F)F)c2)[C@H]2CC[C@@H]1/C2=C\C1CCCC1 (stereo partly shown) [compound 946], the EC50 was 0.9 nM.
Work on COc1ccc(-n2nccc2C(=O)O)cc1C(=O)N[C@@H]1C2CCC(/C2=C/C(F)(F)F)[C@@H]1C(=O)Nc1ccc(F)c(C(F)(F)F)c1 (stereo partly shown) [compound 345] yielded an EC50 of 1400 nM.
In the case of CC(C)=C1C2CCC1[C@H](C(=O)Nc1ccc(F)c(C(F)(F)F)c1)[C@@H]2NC(=O)c1cc(-c2cc(C(=O)O)ccc2F)ccc1N(C)C (stereo partly shown) [Example 107], the EC50 is reported as 180 nM.
Compound COc1ccc(C2CCN(C(=O)C(C)(C)O)C2)cc1C(=O)N[C@H]1[C@@H](C(=O)Nc2ccc(F)c(C(F)(F)F)c2)[C@H]2CC[C@@H]1/C2=C\C1CC1 (single isomer, unassigned) [Example 449] has an EC50 of 1.6 nM.
